In patent US9861703B2 (Jinan Platinum Pharmatech Co. Ltd., priority 2013, dated 2018):

Assays:
[1] = system: clear-cell ovarian carcinoma cell line ES-2; assay: MTT proliferation inhibition, ES-2; type: cell-based; details: for EC50: 48 h
Procedure: (§1) Human leukemia cell line K562, clear-cell ovarian carcinoma cell line ES-2, human prostate cancer cell line PC-3, human breast cancer cell line MCF-7, cell line Hela, human liver cancer cell line H7402 and human ovarian cancer cell line 3-AO were transferred into a culture flask and were cultured in a medium at 37° C. in a 5% CO2 and saturation humidity. One bottle of cells in logarithmic growth phase was picked out and was blew and beaten to be uniform with a pipette, then took some cell suspension solution to prepare blood counting plate smear to count cells under inverted microscope, and then adjusted the cell number to be 1×10^5/mL by adding some culture medium. Cells were seeded on a 96-well plate on which also drug tests performed. Blank control group, negative control group, positive control group and drug test group were established on the plate while the surrounding wells of the plate were not used (but filled with sterile PBS), wherein the blank control groups were prepared by addition of culture medium 150 μL per well, the negative control groups were prepared by addition of cell suspension solution 100 μL per well and culture medium 50 μL per well, the positive control groups were prepared by addition of cell suspension solution 100 μL per well and positive control drug solution 50 μL per well, the drug test groups were prepared by addition of cell suspension solution 100 μL per well and test compound solution 50 μL per well, and there were 5 different concentrations of drug in the positive control group and the drug test group respectively: 0.01, 0.1, 1, 10, 100 μmol·L^−1, each concentration was established with 3 parallel wells. After the drug was added, the 96-well plate was incubated for 48 h at 37° C. in a CO2 incubator of 5% CO2 and saturation humidity. Upon completion of the incubation, 20 μL MTT solution (concentration was 5 mg/mL) was added to each well and incubated for an additional 4 h, and after the 96-well plate was centrifuged at 2000 rpm for 30 min, medium of each well was suck out carefully and removed and 100 μL DMSO was added instead, followed by vibrating on a tablet shaker for 15 min to re-dissolve formazan crystals completely. OD value of each well was measured at 570 nm wavelength using an enzyme-linked immunosorbent assay reader to calculate cellular proliferation inhibitory ratio of each drug in different concentrations. And half-inhibitory concentration (IC50) was calculated using statistical software SPSS 16.0, wherein the cellular proliferation inhibitory ratio can be calculated as following equation: […]

[2] = target: T1, Aminopeptidase N (Sus scrofa, UniProt P15145); assay: Inhibition activity against enzyme in vitro (aminopeptidase N, L-Leu-p-nitroanilide substrate); type: biochemical; details: for IC50: 37° C., 0.5 h, absorbance 405 nm, PBS pH 7.2, read-out: IC50(μM) APN
T1 construct: purchased Sigma
T1 sequence (P15145 1-963): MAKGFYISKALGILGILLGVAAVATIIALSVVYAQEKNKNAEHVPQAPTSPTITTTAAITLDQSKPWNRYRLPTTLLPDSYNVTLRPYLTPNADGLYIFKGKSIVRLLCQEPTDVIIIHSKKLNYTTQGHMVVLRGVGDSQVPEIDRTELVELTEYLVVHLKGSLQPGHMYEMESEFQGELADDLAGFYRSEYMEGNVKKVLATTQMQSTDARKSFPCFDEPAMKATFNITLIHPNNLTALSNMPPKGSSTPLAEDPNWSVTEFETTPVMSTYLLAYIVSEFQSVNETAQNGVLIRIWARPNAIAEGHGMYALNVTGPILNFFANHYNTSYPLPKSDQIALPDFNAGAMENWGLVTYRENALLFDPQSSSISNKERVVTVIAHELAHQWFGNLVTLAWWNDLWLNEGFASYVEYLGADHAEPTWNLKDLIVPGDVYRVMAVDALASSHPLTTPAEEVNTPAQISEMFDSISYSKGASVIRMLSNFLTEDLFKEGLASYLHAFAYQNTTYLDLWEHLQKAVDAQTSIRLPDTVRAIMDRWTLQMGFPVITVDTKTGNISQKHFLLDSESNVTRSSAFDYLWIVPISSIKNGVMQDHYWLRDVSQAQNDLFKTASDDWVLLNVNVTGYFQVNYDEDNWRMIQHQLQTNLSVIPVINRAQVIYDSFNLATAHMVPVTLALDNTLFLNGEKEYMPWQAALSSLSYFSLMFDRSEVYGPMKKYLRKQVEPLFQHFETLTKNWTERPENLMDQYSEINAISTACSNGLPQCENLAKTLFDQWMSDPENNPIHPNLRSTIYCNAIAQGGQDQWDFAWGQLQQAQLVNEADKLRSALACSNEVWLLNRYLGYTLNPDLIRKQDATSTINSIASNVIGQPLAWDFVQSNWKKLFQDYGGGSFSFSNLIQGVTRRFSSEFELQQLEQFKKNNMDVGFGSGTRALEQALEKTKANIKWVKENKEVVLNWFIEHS
Procedure: Aminopeptidase N and L-Leu-p-nitroanilide as substrate were purchased from Sigma cooperation.
Preparation of Buffer Solution: 12.89 g Na2HPO4.12H2O and 2.18 g NaH2PO4.2H2O were dissolved in a 1000 mL volumetric flask, then the mixture was diluted to 1000 mL with fresh distilled water to obtain 50 mM Phosphate Buffer solution (PBS, pH 7.2), which was kept at room temperature to spare.
Aminopeptidase N was dissolved in the buffer solution to obtain 0.1 IU/mL solution.
The substrate was dissolved in DMSO to obtain a […] solution, which was kept in refrigerator to spare.
The aminopeptidase N solution 10 μL, the substrate solution 5 μL and compound with different concentration 40 μL were added into a 96-well cell plate, and then adjusted to 200 μL with phosphate buffer saline solution (pH 7.2). […] And the substrate solution 5 μL of blank group was adjusted to 200 μL with buffer solution. The mixture was incubated at 37° C. for 0.5 h, and absorbance was then determined at 405 nm wavelength Inhibitory ratio can be calculated as follows: […]
According to concentration of compound and corresponding inhibitory ratio, the IC50 value was calculated by using a fitting curve of Origin 7.5 software.

[3] = system: human prostate cancer cell line PC-3; assay: MTT proliferation inhibition, PC-3; type: cell-based; details: 48 h
Procedure: as §1

[4] = system: H22 tumor cells; assay: Activities of compounds in H22 tumor cells bearing Kunming mice models (Example 34); details: for anti-tumor growth activity: FIGS. 11-14; for Number of mice alive: 8 mice; for Tumor growth inhibition (%) / Tumor weight: after two cycles
Procedure: The ascites was extracted from H22 tumour bearing mice with well growth, followed by adding sterile PBS to dilute the ascites to a concentration of 8.5×10^7 cells/mL. 100 uL of the cells solution was suck up by a 1 mL sterile injector to inoculate into right oxter of mice. After 3 days, the mice were weighted and randomized to several groups (almost 8 mice per group, and a bit more in control group). These mice were administrated a predetermined dosage by intravenous or oral gavage with two days off when having administrated for 5 days until two cycles one of which had 7 days. The body weight of mouse was recorded at the beginning and ending of every cycle,
After being administrated for two cycles, the mice were weighted and recorded, then sacrificed by cervical dislocation to get lung, liver and spleen weighted respectively.
Overall difference was calculated by the function of one-way analysis of variance (One-Way ANOVA) in Origin 7.5 software; and t-test was used for pair-comparison between drug administrated group and blank group, and the inhibitory ratio of drug in each group was calculated based on the following equation: inhibitory ratio (100%)=(mean tumor weight of control group−mean tumor weight of drug administrated group)/mean tumor weight of control group×100.

[5] = system: 7 cell lines (ES-2, K562, PC-3, MCF-7, Hela, H7402, 3-AO); assay: MTT proliferation inhibition, all 7 tumor cell lines (summary in words); type: cell-based
Procedure: as §1

[6] = intravenous injection, 55 mg/kg/d (0.1 mmol/kg/d) (by order of dosage table)
[7] = intravenous injection, 79 mg/kg/d (0.15 mmol/kg/d) (by order of dosage table)
[8] = oral gavage, 130 mg/kg/d ([…]) per dosage table, group printed *BC-02(70)
[9] = intravenous injection, 50 mg/kg/d (0.1 mmol/kg/d)
[10] = oral gavage, 120 mg/kg/d ([…]) per dosage table, group printed *BC-01(50)

Structure (SMILES): CC(C)C[C@H](NC(=O)[C@@H](O)[C@H](N)Cc1ccccc1)C(=O)NCC(=O)OCn1cc(F)c(=O)[nH]c1=O.Cl [BC-02, (5-fluoro-2,4-dioxo-3,4-dihydropyrimidinyl-1(2H))methyl-2-((S)-2-((2S,3R)-3-amino-2-hydroxy-4-phenylbutanamido)-4-methylpentanamido)acetate hydrochloride]
- proliferation inhibition activity against ES-2 [1]: great proliferation inhibition activity
- EC50 [1]: 1.34 µM
- inhibitory activity against aminopeptidase N compared with positive control ubenimex [2]: much more potent than the positive control drug ubenimex
- IC50 [2]: 0.38 µM
- EC50 [3]: 3.45 µM
- tumor appearance until the end of the experiment ([4]; 0.15 mmol/kg/d, intravenous): no tumor appeared
- anti-tumor growth activity [4]: excellent anti-tumor growth activity
- Number of mice alive [4, 6]: 7
- Tumor growth inhibition (%) [4, 6]: 89.52%
- Tumor weight [4, 6]: 0.06 ± 0.11 g
- Body weight(g) Beginning [4, 6]: 25.67 ± 2.62 g
- Body weight(g) Ending [4, 6]: 28.35 ± 3.71 g
- Number of mice alive [4, 7]: 7
- Tumor growth inhibition (%) [4, 7]: 100%
- Tumor weight [4, 7]: 0.0 ± 0.0 g
- Body weight(g) Beginning [4, 7]: 30.32 ± 4.42 g
- Body weight(g) Ending [4, 7]: 31.13 ± 3.55 g
- Number of mice alive [4, 8]: 7
- Tumor growth inhibition (%) [4, 8]: 89.76%
- Tumor weight [4, 8]: 0.06 ± 0.11 g
- Body weight(g) Beginning [4, 8]: 27.98 ± 3.73 g
- Body weight(g) Ending [4, 8]: 27.49 ± 4.94 g
- anti-proliferation effect against all the tumor cells [5]: obvious anti-proliferation effect

Structure (SMILES): CC(C)C[C@H](NC(=O)[C@@H](O)[C@H](N)Cc1ccccc1)C(=O)OCn1cc(F)c(=O)[nH]c1=O.Cl [BC-01, (S)-(5-fluoro-2,4-dioxo-3,4-dihydropyrimidinyl-1(2H))methyl-2-((2S,3R)-3-(amino)-2-hydroxy-4-phenylbutyryl)-4-methylpentanoate hydrochloride]
- EC50 [1]: 2.53 µM
- inhibitory activity against aminopeptidase N compared with positive control ubenimex [2]: comparable activity with ubenimex
- IC50 [2]: 6.98 µM
- EC50 [3]: 10.7 µM
- anti-tumor growth activity [4]: excellent anti-tumor growth activity
- Number of mice alive ([4]; intravenous injection, 50 mg/kg/d (0.1 mmol/kg/d), two cycles): 8
- Tumor growth inhibition (%) [4, 9]: 84.38%
- Tumor weight [4, 9]: 0.09 ± 0.14 g
- Body weight(g) Beginning [4, 9]: 31.52 ± 3.63 g
- Body weight(g) Ending [4, 9]: 31.78 ± 5.76 g
- Number of mice alive [4, 10]: 7
- Tumor growth inhibition (%) [4, 10]: 79.52%
- Tumor weight [4, 10]: 0.12 ± 0.16 g
- Body weight(g) Beginning [4, 10]: 27.87 ± 2.55 g
- Body weight(g) Ending [4, 10]: 29.50 ± 2.15 g
- anti-proliferation effect against all the tumor cells [5]: obvious anti-proliferation effect
